Measured values from patent US9757399B2, “Butyrylcholinesterase inhibitors” (priority 2006, dated 2017).

Experiments:
butyrylcholinesterase [1] = molecular target: T1, butyrylcholinesterase (Equus caballus, UniProt P81908); assay: biochemical; type: biochemical, horse; settings: for Change in Absorbance at 412 nm/Minute (Normalized): 10^−7M, normalized to 2-chlorophenyl-di-n-butyl phosphate set as 1.0; for Change in Absorbance at 412 nm/Minute (Not Normalized): compound final concentration 10^−7M; for inhibition at 100 µM: read-out: % inhibition of BuChase
T1 construct: butyrylcholinesterase (from horse serum); purchased Sigma; host or cells: horse serum (natural source)
T1 sequence (P81908 whole entry): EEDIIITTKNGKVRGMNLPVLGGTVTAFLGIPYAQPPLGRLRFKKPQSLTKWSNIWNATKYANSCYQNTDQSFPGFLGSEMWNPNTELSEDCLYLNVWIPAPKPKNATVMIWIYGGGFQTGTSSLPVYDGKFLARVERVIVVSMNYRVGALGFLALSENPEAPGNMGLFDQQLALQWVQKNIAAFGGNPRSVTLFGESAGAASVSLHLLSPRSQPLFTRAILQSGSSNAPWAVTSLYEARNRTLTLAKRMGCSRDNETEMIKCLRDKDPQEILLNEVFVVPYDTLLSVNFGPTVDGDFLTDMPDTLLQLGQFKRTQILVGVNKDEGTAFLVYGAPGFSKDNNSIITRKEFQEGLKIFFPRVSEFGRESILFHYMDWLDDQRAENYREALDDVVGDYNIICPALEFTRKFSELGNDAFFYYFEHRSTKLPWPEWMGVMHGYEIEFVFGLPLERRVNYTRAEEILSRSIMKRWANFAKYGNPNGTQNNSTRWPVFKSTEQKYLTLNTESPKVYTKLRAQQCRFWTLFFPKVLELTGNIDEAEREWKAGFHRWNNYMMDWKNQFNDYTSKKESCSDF
Protocol: (§1) Cholinesterase activity measurements were performed essentially according to the method of Ellman (Biochemical Pharmacology 7:88-90, 1961). The composition of the assay mixture was 0.1 M sodium phosphate, pH 7.5, 0.033 M DTNB, 0.001 M MgCl2, and 100 μg/mL of BSA containing appropriate amounts of substrate and inhibitor. Each assay was initiated by the addition of substrate and the activity quantified by measuring the formation of the thionitrobenzoate anion at 412 nm at 37° C. Methanol used to solubilize the dialkyl phenyl phosphates [1% (v/v) final concentration] had no inhibitory effect on either enzyme.
. The results were obtained by pre-incubating the enzyme with the compound (final concentration 10^−7M) for various periods of time and measuring the remaining enzyme activity. The results are shown as the change in absorbance at 412 nm/minute. In order to simplify the results from all the compounds, the enzyme activities were normalized to 2-chlorophenyl-di-n-butyl phosphate which was set as 1.0. Since two different preparations of enzyme were used, the normalization procedure would adjust for any differences in the amount of enzyme. […]. In other cases, the compound's inhibitory activity is not as strong and assay conditions were modified to increase the inhibitor concentration.
Table 4: Rates of inactivation of butyrylcholinesterase by exemplary compounds: Change in Absorbance at 412 nm/Minute. (ND=No Data)

[2] = molecular target: T2, butyrylcholinesterase (from horse serum) (Equus caballus, UniProt P81908); assay: Rates of inactivation of butyrylcholinesterase, Ellman assay; type: biochemical; settings: for k, rate constant of inactivation of butyrylcholinesterase ± S.E.M: 100 nM inhibitor, 25° C.; for effect on BuChase activity under standard conditions: standard conditions (100 nM inhibitor)
T2 construct: butyrylcholinesterase (from horse serum); purchased Sigma; host or cells: horse serum (natural source)
T2 sequence (P81908 whole entry): as above
Protocol: (§2) Acetylcholinesterase (from electric eel), butyrylcholinesterase (from horse serum), DTNB, butyrylthiocholine, acetylthiocholine, and BSA were purchased from Sigma. The dialkyl 2-chlorophenyl (and 4-chlorophenyl) phosphates were solubilized in reagent grade methanol.
as §1
(§3) Butyrylcholinesterase was pre-incubated at room temperature with inhibitor in the assay cocktail minus substrate for varying periods of time at 25° C. Substrate was then added and the activity measured as described above. The relative rates of enzyme inactivation were determined by plotting enzyme activity versus time of pre-incubation with inhibitor. Results were expressed as the rate constant for the rate of enzyme inactivation. In the case of AcChase, results were expressed as the % of activity remaining relative to the enzyme incubated only with solvents.
. […] In Table 2, BuChase was incubated for increasing periods of time at 25° C. with 100 nM inhibitor then assayed for activity as described above. Rate constants were calculated from a plot of enzyme activity vs. time of inhibitor exposure. […]. Slopes were calculated by linear regression analysis.

[3] = molecular target: T3, Acetylcholinesterase (from electric eel) (Electrophorus electricus, UniProt O42275); assay: Acetylcholinesterase activity, Ellman assay after pre-incubation with inhibitor; type: biochemical; settings: 100 μM compound, 60 minutes at 25° C.
T3 construct: Acetylcholinesterase (from electric eel); purchased Sigma; host or cells: electric eel (natural source)
T3 sequence (O42275 24-633): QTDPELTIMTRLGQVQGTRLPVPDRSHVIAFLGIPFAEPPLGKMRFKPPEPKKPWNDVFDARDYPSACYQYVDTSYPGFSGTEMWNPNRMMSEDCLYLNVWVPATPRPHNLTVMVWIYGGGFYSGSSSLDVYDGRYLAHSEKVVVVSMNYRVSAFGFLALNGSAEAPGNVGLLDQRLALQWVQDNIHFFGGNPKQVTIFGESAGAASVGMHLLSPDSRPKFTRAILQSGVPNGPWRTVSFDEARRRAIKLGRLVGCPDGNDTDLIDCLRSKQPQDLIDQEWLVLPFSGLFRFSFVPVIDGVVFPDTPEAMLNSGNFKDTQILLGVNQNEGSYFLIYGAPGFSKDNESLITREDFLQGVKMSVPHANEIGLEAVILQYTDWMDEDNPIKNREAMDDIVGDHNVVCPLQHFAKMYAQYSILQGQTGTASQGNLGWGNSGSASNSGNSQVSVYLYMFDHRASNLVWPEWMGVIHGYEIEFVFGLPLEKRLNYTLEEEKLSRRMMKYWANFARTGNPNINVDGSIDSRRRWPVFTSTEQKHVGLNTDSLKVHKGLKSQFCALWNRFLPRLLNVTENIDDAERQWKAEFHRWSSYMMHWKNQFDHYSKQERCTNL
Protocol: as §2, §1, §3
The first series of experiments determined the effect of the dialkyl 2-chlorophenyl (and 4-chlorophenyl) phosphates on both AcChase and BuChase. None of the compounds had any inhibitory effect on AcChase (See Table 1). In Table 1, AcChase was incubated with 100 μM of the indicated phenyl phosphate for 60 minutes at 25° C. and then assayed as described above. Results were expressed as the % activity relative to enzyme incubated with solvent ±SD (standard deviation).

acetylcholinesterase = molecular target: T4, acetylcholinesterase (Electrophorus electricus, UniProt O42275); assay: Native gel electrophoresis activity stain, AcChase; type: biochemical, electric eel; settings: pre-incubation with inhibitor
T4 construct: Acetylcholinesterase (from electric eel); purchased Sigma; host or cells: electric eel (natural source)
T4 sequence (O42275 24-633): as above
Protocol: (§4) Enzyme activity was also measured by native gel electrophoresis. For cholinesterase activity, proteins (10 μg of both acetylcholinesterase and butyrylcholinesterase) were fractionated on Novex precast 10% Tris glycine gels (Invitrogen). Enzyme activity was detected by first incubating the gels in a solution of 5 mM substrate then staining with a solution of copper sulfate/potassium ferricyanide.
(§5) Using native gel electrophoresis, both AcChase and BuChase activity was detected. Pre-incubation of AcChase with di-ethyl 2-chlorophenyl phosphate had no effect on AcChase activity (FIG. 1).

butyrylcholinesterase [4] = molecular target: T1, butyrylcholinesterase; assay: Native gel electrophoresis activity stain, BuChase; type: biochemical, horse; settings: pre-incubation with inhibitor
Protocol: as §4, §5

butyrylcholinesterase [5] = molecular target: T1, butyrylcholinesterase; assay: Phosphorylation of BuChase by 14C-labeled inhibitor, autoradiography; design: species or system horse; settings: 14C-labeled compound, native gel
Protocol: The cholinesterases were pre-incubated with ^14C-di-ethyl-2-chlorophenyl phosphate and then fractionated by native gel electrophoresis as described above. The proteins were fixed in the gel with 10% acetic acid/30% methanol. The fixative was removed and replaced with 100 mL of EN^3HANCE. The gel was incubated for 60 minutes at room temperature with gentle agitation and then placed in 5% PEG and incubated for 30 minutes at room temperature with gentle agitation. The gel was then dried down on a piece of 3 MM filter paper, exposed to X-ray film at −80° C. for 2 weeks, and then developed.

[6] = molecular target: T2, butyrylcholinesterase (from horse serum); assay: Rates of inactivation of butyrylcholinesterase, Ellman assay; type: biochemical; settings: inhibitor at 10^−4M

CCCCOP(=O)(OCCCC)Oc1ccccc1Br
Change in Absorbance at 412 nm/Minute (Normalized) (butyrylcholinesterase [1]): 1.366 | Change in Absorbance at 412 nm/Minute (Not Normalized) (butyrylcholinesterase [1]): 0.918

CCCCOP(=O)(OCCCC)Oc1cccc(Br)c1
Change in Absorbance at 412 nm/Minute (Normalized) (butyrylcholinesterase [1]): 6.220 | Change in Absorbance at 412 nm/Minute (Not Normalized) (butyrylcholinesterase [1]): 4.18

CCCCOP(=O)(OCCCC)Oc1ccc(Br)cc1
Change in Absorbance at 412 nm/Minute (Normalized) (butyrylcholinesterase [1]): 0.737 | Change in Absorbance at 412 nm/Minute (Not Normalized) (butyrylcholinesterase [1]): 0.495

CCCCOP(=O)(OCCCC)Oc1ccc(Cl)cc1Cl
% inhibition of BuChase after 1 minute (butyrylcholinesterase [1]; standard conditions (10^−7M), 1 minute): 92% inhibition after 1 minute under standard conditions

CCCCOP(=O)(OCCCC)Oc1cccc(F)c1
Change in Absorbance at 412 nm/Minute (Normalized) (butyrylcholinesterase [1]): 0.696 | Change in Absorbance at 412 nm/Minute (Not Normalized) (butyrylcholinesterase [1]): 0.468

CCCCOP(=O)(OCCCC)Oc1ccccc1F
Change in Absorbance at 412 nm/Minute (Normalized) (butyrylcholinesterase [1]): 2.604 | Change in Absorbance at 412 nm/Minute (Not Normalized) (butyrylcholinesterase [1]): 1.75

CCCCOP(=S)(OCCCC)Oc1ccccc1Cl
% inhibition of BuChase (butyrylcholinesterase [1]; compound at 10^−4 M): 14.6% | inhibitory under standard conditions (butyrylcholinesterase [1]; standard conditions (10^−7M)): Not Inhibitory

CCCCOP(=O)(Oc1ccc(Cl)cc1Cl)Oc1ccc(Cl)cc1Cl
inhibition at 100 µM (butyrylcholinesterase [1]; compound at 10^−4 M): 63.4% | inhibitory under standard conditions (butyrylcholinesterase [1]; standard conditions (10^−7M)): Not inhibitory

O=P(Oc1ccccc1)(Oc1ccccc1)Oc1ccccc1Cl
inhibition at 100 µM (butyrylcholinesterase [1]; compound at 10^−4 M): 29.4% | inhibitory under standard conditions (butyrylcholinesterase [1]; standard conditions (10^−7M)): Not inhibitory

CCCCOP(=O)(OCCCC)Oc1ccccc1C
type of inhibition (butyrylcholinesterase [1]): Reversible inhibitor: Ki = 2.1 μM

CCCCOP(=O)(OCCCC)Oc1ccc([N+](=O)[O-])cc1
% Inhibition of BuChase, immediate (butyrylcholinesterase [1]; standard conditions (10^−7M)): 100% Inhibition (Immediate under standard conditions)

CCCCOP(=O)(OCCCC)Oc1cccc([N+](=O)[O-])c1
% Inhibition of BuChase after 2 minutes (butyrylcholinesterase [1]; standard conditions (10^−7M), 2 minutes): 100% | % Inhibition of BuChase, immediate (butyrylcholinesterase [1]; standard conditions (10^−7M)): 83%

CCCCCCP(=O)(OCCCC)Oc1ccccc1Cl (stereo not shown)
Change in Absorbance at 412 nm/Minute (Normalized) (butyrylcholinesterase [1]): 14.94 | Change in Absorbance at 412 nm/Minute (Not Normalized) (butyrylcholinesterase [1]): 10.04

CCCCP(=O)(Oc1ccccc1Cl)Oc1ccccc1Cl
Change in Absorbance at 412 nm/Minute (Normalized) (butyrylcholinesterase [1]): 0.48 | Change in Absorbance at 412 nm/Minute (Not Normalized) (butyrylcholinesterase [1]): 0.32

CCCCP(=O)(CCCC)Oc1ccccc1Cl
Change in Absorbance at 412 nm/Minute (Normalized) (butyrylcholinesterase [1]): 1.018 | Change in Absorbance at 412 nm/Minute (Not Normalized) (butyrylcholinesterase [1]): 0.684

CCCCCCNP(=O)(OCCCC)Oc1ccccc1Cl (stereo not shown)
Change in Absorbance at 412 nm/Minute (Normalized) (butyrylcholinesterase [1]): 1.024 | Change in Absorbance at 412 nm/Minute (Not Normalized) (butyrylcholinesterase [1]): 0.688

CCCCCCNP(=O)(Oc1ccccc1Cl)Oc1ccccc1Cl
inhibition at 100 µM (butyrylcholinesterase [1]; compound at 10^−4 M): 73.9% | inhibitory under standard conditions (butyrylcholinesterase [1]; standard conditions (10^−7M)): Not inhibitory

CCOP(=O)(OCC)Oc1ccccc1Cl [Di-ethyl-, 2-Chlorophenyl diethyl phosphate]
k, rate constant of inactivation of butyrylcholinesterase ± S.E.M [2]: 6.64 ± 2.1 min^−1 × 10^−2 | % Activity ± SD (acetylcholinesterase activity relative to enzyme incubated with solvent) [3]: 96.77 ± 0.019% | effect on AcChase activity, native gel (FIG. 1) (acetylcholinesterase): no effect | effect on BuChase activity, native gel (FIG. 2A) (butyrylcholinesterase [4]): nearly completely inhibited | covalent modification of BuChase (FIG. 2B) (butyrylcholinesterase [5]): covalently modified

CC(C)COP(=O)(OCC(C)C)Oc1ccccc1Cl [Di-iso-butyl-, Di-i-butyl 2-Chlorophenyl phosphate]
k, rate constant of inactivation of butyrylcholinesterase ± S.E.M [2]: 60.83 ± 5.8 min^−1 × 10^−2 | % Activity ± SD (acetylcholinesterase activity relative to enzyme incubated with solvent) [3]: 96.18 ± 0.023%

CC(C)OP(=O)(Oc1ccccc1Cl)OC(C)C [Di-iso-propyl-, 2-Chlorophenyl di-i-propyl phosphate]
effect on BuChase activity under standard conditions [2]: no effect | % Activity ± SD (acetylcholinesterase activity relative to enzyme incubated with solvent) [3]: 97.82 ± 0.045% | % Inhibition of butyrylcholinesterase [6]: 85.3% Inhibition

COP(=O)(OC)Oc1ccccc1Cl [Di-methyl-, 2-Chlorophenyl dimethyl phosphate]
effect on BuChase activity under standard conditions [2]: no effect | % Activity ± SD (acetylcholinesterase activity relative to enzyme incubated with solvent) [3]: 101.9 ± 0.019% | % Inhibition of butyrylcholinesterase [6]: 48.9% Inhibition

CCCCOP(=O)(OCCCC)Oc1ccc(Cl)cc1 [Di-n-butyl-(4Cl), Di-n-butyl 4-chlorophenyl phosphate]
k, rate constant of inactivation of butyrylcholinesterase ± S.E.M [2]: 13.01 ± 2.0 min^−1 × 10^−2 | % Activity ± SD (acetylcholinesterase activity relative to enzyme incubated with solvent) [3]: 97.61 ± 0.006%

CCCCCOP(=O)(OCCCCC)Oc1ccccc1Cl [Di-n-pentyl-, 2-Chlorophenyl di-n-pentyl phosphate]
k, rate constant of inactivation of butyrylcholinesterase ± S.E.M [2]: 30.44 ± 3.3 min^−1 × 10^−2 | activity at 100 µM ([3]; read-out: % Activity ± SD (acetylcholinesterase activity relative to enzyme incubated with solvent)): 101.7 ± 0.03%

CCCOP(=O)(OCCC)Oc1ccccc1Cl [Di-n-propyl-, 2-Chlorophenyl di-n-propyl phosphate]
k, rate constant of inactivation of butyrylcholinesterase ± S.E.M [2]: 20.21 ± 2.2 min^−1 × 10^−2 | % Activity ± SD (acetylcholinesterase activity relative to enzyme incubated with solvent) [3]: 97.38 ± 0.028%

CCCCOP(=O)(OCCCC)Oc1ccc(Cl)cc1 [drawing 55]
Change in Absorbance at 412 nm/Minute (Normalized) (butyrylcholinesterase [1]): 0.338 | Change in Absorbance at 412 nm/Minute (Not Normalized) (butyrylcholinesterase [1]): 0.227
